Measurements taken from ChEMBL document CHEMBL4837230, “Thiophene-2-carboxamide derivatives of anthraquinone: A new potent antitumor chemotype” (Eur J Med Chem, 2021).
pIC50: −log10 of the molar value. Calls of active or inactive are those of the source. The calls are words filed in the database; no cut-off is given here.

What was measured:
[1] = Drug localization in nuclei of mouse NIH3T3 cells at 1 uM incubated for 5 to 60 mins by Hoechst 33258 staining based laser confocal microscopy; type: ADME, cell-based; conditions: nih3t3, 1 µM, time 5-60 min
K562 [2] = assay: Induction of mitochondrial membrane potential loss in human K562 cells at 2.5 uM after 3 hrs by Mitotracker Red dye based flow cytometric analysis(reference value: 7.8 %); type: functional
K562 [3] = assay: Induction of cell cycle arrest in human K562 cells assessed as increase in accumulation at G0/G1 phase at 2.5 uM after 6 hrs by flow cytometric analysis (reference value: 14.1%); type: functional
[4] = Resistance index, ratio of IC50 for cytotoxicity against p53 knock out human HCT-116 cells to IC50 for cytotoxicity against human HCT-116 cells; type: functional
CAPAN-1 = assay: Cytotoxicity in human CAPAN-1 cells assessed as reduction in cell viability incubated for 72 hrs by MTT assay; type: functional, cell-based; conditions: CAPAN-1, 72 h
[5] = Drug localization in mitochondria of mouse NIH3T3 cells at 1 uM measured after 60 mins by MitoTracker red based confocal microscopic method; type: ADME; conditions: nih3t3, 1 h
K562 [6] = assay: Induction of cell cycle arrest in human K562 cells assessed as increase in accumulation at sub-G1 phase at 2.5 uM after 6 hrs by flow cytometric analysis (reference value: 22.1%); type: functional
K562 [7] = assay: Induction of cell cycle arrest in human K562 cells assessed as increase in accumulation at sub-G1 phase at 2.5 uM after 2 hrs by flow cytometric analysis (reference value: 15.2%); type: functional
K562 [8] = assay: Induction of cell cycle arrest in human K562 cells assessed as increase in accumulation at G2/M phase at 2.5 uM after 4 hrs by flow cytometric analysis (reference value: 19.7%); type: functional
[9] = Drug localization in lysosome of mouse NIH3T3 cells at 1 uM incubated for 5 mins by lyso-tracker red based confocal microscopic method; type: ADME, cell-based; conditions: nih3t3, 5 min
HeLa = assay: Cytotoxicity in human HeLa cells assessed as reduction in cell viability incubated for 72 hrs by MTT assay; type: functional, cell-based
U-937 = assay: Cytotoxicity in human U-937 cells assessed as reduction in cell viability incubated for 72 hrs by MTT assay; type: functional, cell-based; conditions: U-937, 72 h
K562 [10] = assay: Induction of cell cycle arrest in human K562 cells assessed as increase in accumulation at sub-G1 phase at 5 uM after 24 hrs by propidium iodide staining based flow cytometric analysis (reference value: 8.4%); type: functional
K562 [11] = assay: Induction of apoptosis in human K562 cells assessed as late apoptotic cells after 24 hrs by Annexin V-APC/PI double staining based flow cytometric analysis (reference value: 2.6%); type: functional
K562 [12] = assay: Cytotoxicity in human K562 cells assessed as reduction in cell viability at 2.5 uM incubated with compound for 30 mins followed by cell washing and measured after 72 hrs by propidium iodide staining based flow cytometric analysis; type: functional; conditions: 0.5 h
K562 [13] = assay: Induction of mitochondrial membrane potential loss in human K562 cells at 2.5 uM after 6 hrs by Mitotracker Red dye based flow cytometric analysis(reference value: 6.4 %); type: functional
DNA = assay: Binding affinity to pBR322 DNA (unknown origin) at 20 uM after 30 mins by electrophoretic mobility shift assay; type: nucleic-acid assay
K562 [14] = assay: Induction of mitochondrial membrane potential loss in human K562 cells at 7.5 uM after 6 hrs by Mitotracker Red dye based flow cytometric analysis; type: functional, cell-based
K562 [15] = assay: Cytotoxicity in human K562 cells assessed as reduction in cell viability at 1 uM incubated with compound for 60 mins followed by cell washing and measured after 72 hrs by propidium iodide staining based flow cytometric analysis; type: functional
K562 [16] = assay: Cytotoxicity in human K562 cells assessed as reduction in cell viability at 1 uM incubated with compound for 120 mins followed by cell washing and measured after 72 hrs by propidium iodide staining based flow cytometric analysis; type: functional; conditions: 2 h
K562 [17] = assay: Induction of cell cycle arrest in human K562 cells assessed as increase in accumulation at sub-G1 phase at 2.5 uM after 24 hrs by propidium iodide staining based flow cytometric analysis (reference value: 8.4%); type: functional
K562 [18] = assay: Cytotoxicity in human K562 cells assessed as reduction in cell viability at 2.5 uM incubated with compound for 120 mins followed by cell washing and measured after 72 hrs by propidium iodide staining based flow cytometric analysis; type: functional; conditions: 2 h
K562 [19] = assay: Induction of cell cycle arrest in human K562 cells assessed as increase in accumulation at sub-G1 phase at 2.5 uM after 48 hrs by propidium iodide staining based flow cytometric analysis (reference value: 8.4%); type: functional
[20] = target: T1, DNA topoisomerase 1 (Homo sapiens) (UniProt P11387); assay: Inhibition of topoisomerase 1 (unknown origin) assessed as relaxation of supercoiled plasmid pBR322 DNA at 1 to 5 uM incubated for 30 mins by electrophoresis; conditions: dose 1-5 µM
T1 sequence (whole entry): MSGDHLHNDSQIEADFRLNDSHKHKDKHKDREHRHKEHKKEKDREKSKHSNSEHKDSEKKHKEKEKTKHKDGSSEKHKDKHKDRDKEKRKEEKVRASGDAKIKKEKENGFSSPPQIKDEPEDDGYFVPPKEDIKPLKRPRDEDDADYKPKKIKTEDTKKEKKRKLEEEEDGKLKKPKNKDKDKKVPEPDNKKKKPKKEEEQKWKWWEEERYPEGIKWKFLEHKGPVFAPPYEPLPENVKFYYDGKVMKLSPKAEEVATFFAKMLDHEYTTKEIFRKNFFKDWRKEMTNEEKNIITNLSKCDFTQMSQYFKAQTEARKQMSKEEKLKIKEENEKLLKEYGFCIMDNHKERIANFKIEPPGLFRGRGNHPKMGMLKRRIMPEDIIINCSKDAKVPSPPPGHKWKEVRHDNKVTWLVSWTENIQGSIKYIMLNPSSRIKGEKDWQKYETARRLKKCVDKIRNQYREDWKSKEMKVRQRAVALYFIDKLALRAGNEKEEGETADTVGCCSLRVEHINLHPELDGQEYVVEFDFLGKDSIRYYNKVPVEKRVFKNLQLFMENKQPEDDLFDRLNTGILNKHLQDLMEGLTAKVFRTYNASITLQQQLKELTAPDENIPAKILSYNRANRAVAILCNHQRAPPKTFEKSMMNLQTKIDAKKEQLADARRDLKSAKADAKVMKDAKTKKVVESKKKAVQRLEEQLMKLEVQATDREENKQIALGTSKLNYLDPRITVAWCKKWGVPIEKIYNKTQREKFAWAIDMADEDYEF

K562 [21] = assay: Induction of cell cycle arrest in human K562 cells assessed as increase in accumulation at S phase at 2.5 uM by flow cytometric analysis (reference value: 11.2%); type: functional
K562 [22] = assay: Cytotoxicity in human K562 cells assessed as reduction in cell viability at 0.5 uM incubated for 72 hrs by propidium iodide staining based flow cytometric analysis; type: functional
K562 [23] = assay: Induction of apoptosis in human K562 cells assessed as viable cells after 24 hrs by Annexin V-APC/PI double staining based flow cytometric analysis (reference value: 91%); type: functional
[24] = Drug localization in cytoplasm of mouse NIH3T3 cells at 1 uM incubated for 5 to 60 mins by laser confocal microscopy; type: ADME, cell-based; conditions: nih3t3, 1 µM, time 5-60 min

In the case of N[C@H]1CCN(C(=O)c2cc3c(O)c4c(c(O)c3s2)C(=O)c2ccccc2C4=O)C1, the Drug uptake [1] was “Not Active”, the Activity (K562 [2]) was 19.8% and the Activity (K562 [3]) was 31.7%. For the same molecule, the Ratio [4] was 1, the pIC50 (CAPAN-1) was 6.15 and the Drug uptake [5] was “Active”. The Activity (K562 [6]) was 24.6%, the Activity (K562 [7]) was 15.9% and the Activity (K562 [8]) was 17.3%. For the same molecule, the Drug uptake [9] was “Active”, the pIC50 (HeLa) was 6.40 and the pIC50 (U-937) was 6.70. It also gave an Activity (K562 [10]) of 78.4%, an Activity (K562 [11]) of 49.3% and an Activity (K562 [12]) of 67.4%. For the same molecule, the Activity (K562 [13]) was 33.3%, the Activity (DNA) was “inactive” and the Activity (K562 [14]) was “inactive”. It also gave an Activity (K562 [15]) of 6.3%, an Activity (K562 [16]) of 56.4% and an Activity (K562 [17]) of 76.7%. For the same molecule, the Activity (K562 [18]) was 76.5%, the Activity (K562 [19]) was 84.5% and the inhibition [20] was “inactive”. For the same molecule, the Activity (K562 [21]) was 12%, the Activity (K562 [22]) was 77.6% and the Activity (K562 [23]) was 1.8%. The Drug uptake [24] was “Active”.
